The results in this text go back to US20190038628A1, “USE OF INHIBITORS OF THE ACTIVITY OR FUNCTION OF PI3K FOR THE TREATMENT OF PRIMARY SJOGREN'S SYNDROME” (Novartis AG, priority 2016, published 2019).

Each structure is given as a SMILES string. Where “and” joins values, the source holds several entries; their conditions need not be identical. Equal values may be shown once. Read-outs that look alike come from different tables or passages of the source.

What all share (format): cell-based
In assay [1] the test system is BPMC derived from human healthy volunteers. The assay can be described thus: Chemokines in supernatant of PBMC from healthy volunteers stimulated with CpG or anti-IgM (summary statement). The text has this: Phosphorylated Akt (pAkt) is a downstream effector of PI3K delta activation. 1-{(S)-3-[6-(6-Methoxy-5-trifluoromethyl-pyridin-3-yl)-5,6,7,8-tetrahydro-pyrido[4,3-d]pyrimidin-4-ylamino]-pyrrolidin-1-yl}-propan-1-one or pharmaceutically acceptable salts thereof is a PI3K inhibitor with a selectivity for the PI3K delta isoform (WO2012/004299). […] 1) Chronic B-cell hyperactivity is a consistent and prominent immunoregulatory abnormality in pSS (Hansen A et al, Arthritis Research & Therapy 2007; 9; 218). […] 1-{(S)-3-[6-(6-Methoxy-5-trifluoromethyl-pyridin-3-yl)-5,6,7,8-tetrahydro-pyrido[4,3-d]pyrimidin-4-ylamino]-pyrrolidin-1-yl}-propan-1-one or pharmaceutically acceptable salts thereof inhibits CXCL13 (BCA-1, BLC), but also of CXCL10 (IP-10) and CCL4 (MIP-1beta) in supernatant of BPMC derived from human healthy volunteers stimulated with CpG or anti-IgM. • 3) Characteristic features in pSS include the formation of ectopic lymphoid tissue with germinal center (GC)-like structures. In healthy individuals, GCs are generated from primary B-cell follicles of secondary lymphoid organs during T-cell-dependent immune responses (Hansen A et al, Arthritis Research & Therapy 2007; 9; 218).

Assay [2] relates to Mouse BCR transgenic B cells. The assay can be described thus: Proinflammatory cytokine release of mouse BCR transgenic B cells. As to conditions: Mouse BCR tg B cell, stimulus HEL, mean of at least two experiments. The text has this: Purification of CD19^+ splenic B cells from MD4 HEL BcR Tg mice MD4 HEL BcR transgenic B10.BR (MD4 B10.BR) mice were a kind gift from Prof. Jose Moreno (Research Unit on Autoimmune Diseases, Centro Medico Nacional Siglo XXI, Mexico).
The spleens were isolated from MD4 B10.BR and non-transgenic litter control B10.BR mice after sacrificed by exposure to excess amount of isoflurane. The isolated spleens were suspended in RPMI1640 (Invitrogen, #31870), and dissociated by GentleMACS Dissociator (Miltenyi Biotec), and filtrated with Cell Strainer (BD Falcon, 70 μm mesh, #352350). […] The purity was determined via the proportion of CD19 cells in the separated fraction in FACS analysis, and was more than 95%.
FACS Data was analyzed, and their mean fluorescence intensity (MFI) were calculated with FlowJo software (Tree Star Inc). The IC50 values were calculated with GraphPad PRISM ver 6.0 software (GraphPad Software Inc).
One million of B cells purified from MD4 B10.BR as written in the section 2.1 was suspended in 200 μl of complete culture medium, and stimulated with 100 μM of HEL proteins with soluble CD40 ligand at 37° C., 5% CO2 for 48 hours. […] The data are represented as the mean of concentration (pg/ml) from triplicate samples, and IC50 values are calculated as described above. […]

Assay [3] relates to Human Peripheral Blood Mononuclear Cells (PBMC). Kind of assay: anti-IgM-Dextran-induced IP-10 production of human PBMC. As to conditions: for IP-10 in culture supernatant: individual donors 1-6; for IP-10 in culture supernatant, mean: mean of 6 donors. The text has this:
(§1) For evaluating the effect of compound A on the production of chemokines relevant for the formation of germinal centers, PBMC were isolated from Buffy Coat (collected through Inter-Regionale Blutspende of the Swiss Red Cross) by standard Ficoll gradient centrifugation using Ficoll-Paque plus (GE healthcare #17-1440-03) in Leucosep tubes (Greiner Bio-one #227289). Cells were washed two times with PBS and then resuspended at 2.2×10^6/mL in RPMI 1640 medium supplemented with 10% FBS, Gentamycine (50 ug/ml), Insulin-Transferrin-Selenium and P-Mercaptoethanol (50 uM).
(§2) PBMC were dispensed to 48-well plates (Costar #3548) and incubated with pre-diluted compound A resulting in a dilution with a final concentration of 0.3, 1 or 3 uM. Control samples were pretreated with DMSO to obtain a final concentration of 0.03% DMSO. Samples were mixed thoroughly and incubated in a humified incubator at 37° C. for 1 h. Cells were thereafter stimulated by the addition of the TLR9 agonist ODN M362 (Invivogen, #tlrl-m362) at a final concentration of 30 ug/ml or anti-IgM-Dextran (Finabiosolution #0004) at a final concentration of 2 ug/ml. Control samples were left unstimulated. Samples were mixed thoroughly and incubated in a humified incubator at 37° C. for 24 h.
(§3) After the stimulation, culture supernatants were harvested and chemokines quantified by Bio-Plex Multiplex immunoassay (CXCL13; Bio Rad #171 BK12MR2) or MSD V-Plex assay (IP-10; Meso Scale Diagnostics) or according to the manufacturer's instructions.

The test system is the same in assay [4]. The assay can be described thus: TLR9 ligand-induced CXCL13 production of human PBMC. As to conditions: ODN stimulus; for CXCL13 in culture supernatant: individual donors 1-6; for CXCL13 in culture supernatant, mean: mean of 6 donors.
Excerpt: as §1, §2, §3

Where [5] appears, read: Homo sapiens, PBMC, Compound A 300 nM.
Setting [6] is: Homo sapiens, PBMC, Compound A 1000 nM.
The mark [7] stands for this setting: Homo sapiens, PBMC, Compound A 3000 nM.

In the case of `CCC(=O)N1CC[C@H](Nc2ncnc3c2CN(c2cnc(OC)c(C(F)(F)F)c2)CC3)C1` [Compound A, 1-{(S)-3-[6-(6-Methoxy-5-trifluoromethyl-pyridin-3-yl)-5,6,7,8-tetrahydro-pyrido[4,3-d]pyrimidin-4-ylamino]-pyrrolidin-1-yl}-propan-1-one], the “CCL4 (MIP-1beta) in supernatant (in words)” value in assay [1] was “inhibits”. Further, in assay [1], the “CXCL10 (IP-10) in supernatant (in words)” value is “inhibits”. For the same compound, the “CXCL13 (BCA-1, BLC) in supernatant (in words)” value in assay [1] is on record as “inhibits”. For the same compound, the IC50 in assay [2] (read-out: IC50 IL-6) stood at 22 nM; in assay [2] (read-out: IC50 TNFα), 28 nM. For the same compound, the “IP-10 in culture supernatant” value in assay [3] (Compound A 300 nM) was 79 pg/mL and 32 pg/mL and 37 pg/mL and 1233 pg/mL and 52 pg/mL and 2764 pg/mL; in assay [3] (Compound A 1000 nM) it was 71 pg/mL and 29 pg/mL and 42 pg/mL and 1010 pg/mL and 52 pg/mL and 1624 pg/mL; in assay [3] (Compound A 3000 nM), 93 pg/mL and 27 pg/mL and 34 pg/mL and 899 pg/mL and 59 pg/mL and 715 pg/mL. Further, the “IP-10 in culture supernatant, mean” value in assay [3] (Compound A 300 nM) is 699 pg/mL; in assay [3] (Compound A 1000 nM), 471 pg/mL; in assay [3] (Compound A 3000 nM), 305 pg/mL. Besides, the inhibition at 0.3 µM in assay [3] (setting [5]) was 12%; in assay [4] (setting [5]), 40%. In addition, the results for the inhibition at 1 µM in assay [3] (setting [6]) and in assay [4] (setting [6]) were 41% and 51%, respectively. In addition, the inhibition at 3 µM stood at 62% in assay [3] (setting [7]) and 55% in assay [4] (setting [7]). Moreover, the “CXCL13 in culture supernatant” value in assay [4] (Compound A 300 nM) is 8 pg/ml (2×) and 3 pg/ml and 39 pg/ml and 113 pg/ml and 51 pg/ml; in assay [4] (Compound A 1000 nM), 7 pg/ml and 3 pg/ml and 42 pg/ml (2×) and 84 pg/ml and 6 pg/ml; in assay [4] (Compound A 3000 nM) it was 5 pg/mL and 3 pg/mL and 29 pg/mL and 86 pg/mL and 41 pg/mL and 4 pg/mL. For the same compound, the “CXCL13 in culture supernatant, mean” value was 37 pg/mL in assay [4] (Compound A 300 nM), 31 pg/mL in assay [4] (Compound A 1000 nM) and 28 pg/mL in assay [4] (Compound A 3000 nM).

As a reminder, the IC50 is the concentration that inhibits the measured activity by half. What is called inhibition is the percentage by which the read-out fell short of the control. Read a low inhibition as a weak effect.
